Source: patent publication US9850283B2, “Macrocyclic inhibitors of the PD-1/PD-L1 and CD80(B7-1)/PD-L1 protein/protein interactions” (BRISTOL-MYERS SQUIBB COMPANY, priority 2013, dated 2017)
Positions of bridges follow the written chain, without caps; N, C: chain ends. Non-standard residues stand in square brackets, D forms with d. Residues, ends and D or L forms follow the SMILES beside them. *: point of attachment. Bta = N[C@@H](Cc1csc2ccccc12)C(=O)O; Hyp = O=C(O)[C@@H]1C[C@@H](O)CN1; NMeNle = CCCC[C@H](NC)C(=O)O; Pip = O=C(O)[C@@H]1CCCCN1; NMeA = CN[C@@H](C)C(=O)O; Orn = NCCC[C@H](N)C(=O)O; Dab = NCC[C@H](N)C(=O)O; Dap = NC[C@H](N)C(=O)O; Alloc = C=CCOC(=O)*

Columns and labels:
[1] = molecular target: T1, LK35.2-hPD-L1 cells / PE-labeled PD-1-Ig (Homo sapiens, UniProt Q9NZQ7); assay: LK35.2-hPD-L1 cell binding high-content screening assay; format: cell-based; details: cluster symbol; cell line of CBA not given (LK35.2-hPD-L1 or 293T-hPD-L1); read-out: CBA IC50 cluster
T1 construct: expressed in transfected cells; host or cells: LK35.2 mouse B cell line
T1 sequence (Q9NZQ7 19-290): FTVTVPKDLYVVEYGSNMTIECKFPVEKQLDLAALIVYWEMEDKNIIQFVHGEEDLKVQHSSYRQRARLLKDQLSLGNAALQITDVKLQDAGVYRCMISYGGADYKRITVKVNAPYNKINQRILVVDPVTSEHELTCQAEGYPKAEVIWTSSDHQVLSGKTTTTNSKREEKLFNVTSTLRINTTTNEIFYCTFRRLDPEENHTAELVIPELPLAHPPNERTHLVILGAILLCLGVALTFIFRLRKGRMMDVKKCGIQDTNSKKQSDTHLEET
How it was run: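 Compound effect on PD-1/PD-L1 binding is measured by imaging cell-associated phycoerythrin signal. Human PD-1-Ig (PE on Ig tag, 1 nM final) is applied with compound to a murine B cell line overexpressing human PD-L1 for 1 h at 37 °C in serum-containing RPMI.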

[2] = molecular target: T2, Human PD-L1/PD-1 (Homo sapiens, UniProt Q9NZQ7); assay: HTRF PD-1-Ig/PD-L1-His binding assay (human PD-L1); details: cluster symbol; read-out: HTRF IC50 cluster
T2 construct: made in house; host or cells: HEK293T
T2 sequence (Q9NZQ7 with tags, fused parts or gaps): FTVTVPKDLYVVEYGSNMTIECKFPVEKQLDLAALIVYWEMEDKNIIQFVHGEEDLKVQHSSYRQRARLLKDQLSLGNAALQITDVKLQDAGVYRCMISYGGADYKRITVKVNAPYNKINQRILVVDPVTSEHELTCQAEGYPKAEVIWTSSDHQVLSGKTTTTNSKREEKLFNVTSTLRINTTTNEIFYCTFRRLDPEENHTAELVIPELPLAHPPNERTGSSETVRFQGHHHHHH
How it was run: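 Interaction of Fc-tagged soluble PD-1 with His-tagged soluble PD-L1 is monitored by time-resolved FRET. Donor is europium cryptate anti-Ig (1 nM final) and acceptor is APC anti-His (20 nM final). Assay buffer is dPBS with 0.1% BSA and 0.05% Tween-20.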

Compound | IC50 [1] | IC50 [2]
CCCC[C@H]1C(=O)N(C)[C@@H](CCCC)C(=O)N[C@@H](C)C(=O)N[C@H](C(=O)NCC(=O)O)CSCC(=O)N[C@@H](Cc2ccc(O)cc2)C(=O)N(C)[C@@H](C)C(=O)N[C@@H](CC(N)=O)C(=O)N2CCC[C@H]2C(=O)N[C@@H](Cc2cnc[nH]2)C(=O)N[C@@H](CC(C)C)C(=O)N[C@@H](CCN)C(=O)N[C@@H](Cc2c[nH]c3ccccc23)C(=O)N[C@@H](CO)C(=O)N[C@@H](Cc2c[nH]c3ccccc23)C(=O)N1C [Example 1229] | 4.78 to 72.9 nM | 6.76 to 30.3 nM
C=CCOC(=O)NCCC[C@@H]1NC(=O)[C@H](CCCC)N(C)C(=O)[C@H](CCCC)N(C)C(=O)[C@H](Cc2csc3ccccc23)NC(=O)[C@H](CCNC(=O)OCC=C)NC(=O)[C@H](Cc2c[nH]c3ccccc23)NC(=O)[C@@H]2C[C@@H](O)CN2C(=O)[C@H](CCC(=O)O)NC(=O)[C@H](Cc2cnc[nH]2)NC(=O)[C@@H]2CCCN2C(=O)[C@H](CCCN)NC(=O)[C@H](C)N(C)C(=O)[C@H](Cc2ccc(O)cc2)NC(=O)CSC[C@@H](C(=O)NCC(N)=O)NC1=O [Example 1230] ({CH2CO}-Y[NMeA][Orn]PHE[Hyp]W[Dab](Alloc)[Bta][NMeNle][NMeNle][Orn](Alloc)CG-NH2; thioether N-14) | > 74.3 nM | > 30.5 nM
CCCC[C@H]1C(=O)N(C)[C@@H](CCCC)C(=O)N[C@@H](C)C(=O)N[C@H](C(N)=O)CSCC(=O)N[C@@H](Cc2ccc(O)cc2)C(=O)N(C)[C@@H](C)C(=O)N[C@@H](CC(=O)O)C(=O)N2CCC[C@H]2C(=O)N[C@@H](Cc2cnc[nH]2)C(=O)N[C@@H](CCCN)C(=O)N2C[C@H](O)C[C@H]2C(=O)N[C@@H](Cc2c[nH]c3ccccc23)C(=O)N[C@@H](CO)C(=O)N[C@@H](Cc2c[nH]c3ccccc23)C(=O)N1C [Example 1231] ({CH2CO}-Y[NMeA]DPH[Orn][Hyp]WSW[NMeNle][NMeNle]AC-NH2; thioether N-14) | 0.158 to 4.71 nM | 0.385 to 6.74 nM
CCCC[C@H]1C(=O)N(C)[C@@H](CCCC)C(=O)N[C@@H](CCCNC(=N)N)C(=O)N[C@H](C(=O)NCC(N)=O)CSCC(=O)N[C@@H](Cc2ccc(O)cc2)C(=O)N2CCCC[C@H]2C(=O)N[C@@H](CC(=O)O)C(=O)N2CCC[C@H]2C(=O)N[C@@H](CN)C(=O)N[C@@H](CC(C)C)C(=O)N2C[C@H](O)C[C@H]2C(=O)N[C@@H](Cc2c[nH]c3ccccc23)C(=O)N[C@@H](CO)C(=O)N[C@@H](Cc2c[nH]c3ccccc23)C(=O)N1C [Example 1233] ({CH2CO}-Y[Pip]DP[Dap]L[Hyp]WSW[NMeNle][NMeNle]RCG-NH2; thioether N-14) | 0.158 to 4.71 nM | 6.76 to 30.3 nM
CCCC[C@H]1C(=O)N(C)[C@@H](CCCC)C(=O)N[C@@H](CCCN)C(=O)N[C@H](C(=O)NCC(N)=O)CSCC(=O)N[C@@H](Cc2ccc(O)cc2)C(=O)N2CCCC[C@H]2C(=O)N[C@@H](CC(N)=O)C(=O)N2CCC[C@H]2C(=O)N[C@@H](Cc2cnc[nH]2)C(=O)N[C@@H](CCC(=O)O)C(=O)N2C[C@H](O)C[C@H]2C(=O)N[C@@H](Cc2c[nH]c3ccccc23)C(=O)N[C@@H](CO)C(=O)N[C@@H](Cc2c[nH]c3ccccc23)C(=O)N1C [Example 1234] ({CH2CO}-Y[Pip]NPHE[Hyp]WSW[NMeNle][NMeNle][Orn]CG-NH2; thioether N-14) | 0.158 to 4.71 nM | 6.76 to 30.3 nM
CCCC[C@H]1C(=O)N(C)[C@@H](CCCC)C(=O)N[C@@H](CCCN)C(=O)N[C@H](C(=O)NCC(N)=O)CSCC(=O)N[C@@H](Cc2ccc(O)cc2)C(=O)N2CCCC[C@H]2C(=O)N[C@@H](CC(=O)O)C(=O)N2CCC[C@H]2C(=O)N[C@@H](CN)C(=O)N[C@@H](CC(C)C)C(=O)N2C[C@H](O)C[C@H]2C(=O)N[C@@H](Cc2c[nH]c3ccccc23)C(=O)N[C@@H](CO)C(=O)N[C@@H](Cc2c[nH]c3ccccc23)C(=O)N1C [Example 1235] ({CH2CO}-Y[Pip]DP[Dap]L[Hyp]WSW[NMeNle][NMeNle][Orn]CG-NH2; thioether N-14) | 0.158 to 4.71 nM | 6.76 to 30.3 nM
CCCC[C@H]1C(=O)N(C)[C@@H](CCCC)C(=O)N[C@@H](CCCNC(=N)N)C(=O)N[C@H](C(=O)NCC(N)=O)CSCC(=O)N[C@@H](Cc2ccc(O)cc2)C(=O)N2CCCC[C@H]2C(=O)N[C@@H](CC(N)=O)C(=O)N2CCC[C@H]2C(=O)N[C@@H](CN)C(=O)N[C@@H](CC(C)C)C(=O)N2C[C@H](O)C[C@H]2C(=O)N[C@@H](Cc2c[nH]c3ccccc23)C(=O)N[C@@H](CO)C(=O)N[C@@H](Cc2c[nH]c3ccccc23)C(=O)N1C [Example 1236] ({CH2CO}-Y[Pip]NP[Dap]L[Hyp]WSW[NMeNle][NMeNle]RCG-NH2; thioether N-14) | 0.158 to 4.71 nM | 6.76 to 30.3 nM
CCCC[C@H]1C(=O)N(C)[C@@H](CCCC)C(=O)N[C@@H](C)C(=O)N[C@H](C(=O)NCC(=O)O)CSCC(=O)N[C@@H](Cc2ccc(O)cc2)C(=O)N(C)[C@@H](C)C(=O)N[C@@H](CC(N)=O)C(=O)N2CCC[C@H]2C(=O)N[C@@H](Cc2cnc[nH]2)C(=O)N[C@@H](CC(C)C)C(=O)N[C@@H](CCCCN)C(=O)N[C@@H](Cc2c[nH]c3ccccc23)C(=O)N[C@@H](CO)C(=O)N[C@@H](Cc2c[nH]c3ccccc23)C(=O)N1C [Example 1238] | 4.78 to 72.9 nM | 6.76 to 30.3 nM
CCCC[C@H]1C(=O)N(C)[C@@H](CCCC)C(=O)N[C@@H](C)C(=O)N[C@H](C(N)=O)CSCC(=O)N[C@@H](Cc2ccc(O)cc2)C(=O)N(C)[C@@H](C)C(=O)N[C@@H](CCC(=O)O)C(=O)N2CCC[C@H]2C(=O)N[C@@H](Cc2cnc[nH]2)C(=O)N[C@@H](CCN)C(=O)N2C[C@H](O)C[C@H]2C(=O)N[C@@H](Cc2c[nH]c3ccccc23)C(=O)N[C@@H](CO)C(=O)N[C@@H](Cc2c[nH]c3ccccc23)C(=O)N1C [Example 1239] ({CH2CO}-Y[NMeA]EPH[Dab][Hyp]WSW[NMeNle][NMeNle]AC-NH2; thioether N-14) | 4.78 to 72.9 nM | 6.76 to 30.3 nM
CCCC[C@H]1C(=O)N(C)CC(=O)N[C@@H](CC(=O)O)C(=O)N[C@@H](C(C)C)C(=O)N(C)[C@@H](Cc2ccccc2)C(=O)N[C@@H](Cc2ccc(O)cc2)C(=O)N(C)CC(=O)N[C@@H](Cc2c[nH]c3ccccc23)C(=O)N[C@@H](Cc2ccc(O)cc2)C(=O)N[C@@H](CC(C)C)C(=O)N[C@H](C(=O)NCC(N)=O)CSCC(=O)N(C)[C@@H](Cc2ccccc2)C(=O)N1C [Example 3052] (HELM PEPTIDE1{[O=C(C[*:3])[*:2]].[meF].[CCCC[C@@H](C(=O)[*:2])N(C)[*:1]].[Sar].D.V.[meF].Y.[Sar].W.Y.L.C.G.[am]}$PEPTIDE1,PEPTIDE1,1:R3-13:R3$$$V2.0) | > 74.3 nM | > 30.5 nM
CCCC[C@H]1C(=O)N(C)CC(=O)N[C@@H](CC(=O)O)C(=O)N[C@@H](C(C)C)C(=O)N(C)[C@@H](Cc2ccccc2)C(=O)N[C@@H](Cc2ccc(O)cc2)C(=O)N(C)CC(=O)N[C@@H](Cc2c[nH]c3ccccc23)C(=O)N[C@@H](Cc2ccc(O)cc2)C(=O)N[C@@H](CC(C)C)C(=O)N[C@H](C(=O)NCC(N)=O)CSCC(=O)N[C@@H](Cc2ccccc2)C(=O)N1C [Example 3053] (HELM PEPTIDE1{[O=C(C[*:3])[*:2]].F.[CCCC[C@@H](C(=O)[*:2])N(C)[*:1]].[Sar].D.V.[meF].Y.[Sar].W.Y.L.C.G.[am]}$PEPTIDE1,PEPTIDE1,1:R3-13:R3$$$V2.0) | > 74.3 nM | > 30.5 nM
CCCC[C@H]1C(=O)N(C)CC(=O)N[C@@H](CC(=O)O)C(=O)N[C@@H](C(C)C)C(=O)N(C)[C@@H](Cc2ccccc2)C(=O)N[C@@H](Cc2ccc(O)cc2)C(=O)N(C)CC(=O)N[C@@H](Cc2c[nH]c3ccccc23)C(=O)N[C@@H](Cc2ccc(O)cc2)C(=O)N[C@H](C(=O)NCC(N)=O)CSCC(=O)N[C@@H](Cc2ccccc2)C(=O)N(C)[C@@H](Cc2ccccc2)C(=O)N1C [Example 3054] (HELM PEPTIDE1{[O=C(C[*:3])[*:2]].F.[meF].[CCCC[C@@H](C(=O)[*:2])N(C)[*:1]].[Sar].D.V.[meF].Y.[Sar].W.Y.C.G.[am]}$PEPTIDE1,PEPTIDE1,1:R3-13:R3$$$V2.0) | > 74.3 nM | > 30.5 nM
CCCC[C@H]1C(=O)N(C)CC(=O)N[C@@H](CC(=O)O)C(=O)N[C@@H](C(C)C)C(=O)N(C)[C@@H](Cc2ccccc2)C(=O)N[C@@H](Cc2ccc(O)cc2)C(=O)N(C)CC(=O)N[C@@H](Cc2c[nH]c3ccccc23)C(=O)N[C@H](C(=O)NCC(N)=O)CSCC(=O)N[C@@H](Cc2ccccc2)C(=O)N(C)[C@@H](Cc2ccccc2)C(=O)N1C [Example 3055] (HELM PEPTIDE1{[O=C(C[*:3])[*:2]].F.[meF].[CCCC[C@@H](C(=O)[*:2])N(C)[*:1]].[Sar].D.V.[meF].Y.[Sar].W.C.G.[am]}$PEPTIDE1,PEPTIDE1,1:R3-12:R3$$$V2.0) | > 74.3 nM | > 30.5 nM
CCCC[C@H]1C(=O)N(C)CC(=O)N[C@@H](CC(=O)O)C(=O)N[C@@H](C(C)C)C(=O)N(C)[C@@H](Cc2ccccc2)C(=O)N[C@@H](Cc2ccc(O)cc2)C(=O)N(C)CC(=O)N[C@@H](Cc2c[nH]c3ccccc23)C(=O)N[C@@H](Cc2ccc(O)cc2)C(=O)N[C@@H](CC(C)C)C(=O)N[C@H](C(=O)NCC(N)=O)CSCC(=O)N[C@@H](Cc2ccccc2)C(=O)N(C)[C@@H](Cc2cnc[nH]2)C(=O)N1C [Example 3056-A] (HELM PEPTIDE1{[O=C(C[*:3])[*:2]].F.[meH].[CCCC[C@@H](C(=O)[*:2])N(C)[*:1]].[Sar].D.V.[meF].Y.[Sar].W.Y.L.C.G.[am]}$PEPTIDE1,PEPTIDE1,1:R3-14:R3$$$V2.0) | > 74.3 nM | > 30.5 nM
